Experimental data: US20040192888A1, “Method of preparing peptide with high yield and high purity using2-(4-nitrophenylsulfonyl) ethoxycarbonyl-amino acids” (priority 2001, published 2004)

Test: Dissolution comparison of Nα-Nsc-amino acids and Nα-Fmoc-amino acids
Type: physicochemical
Set-up: key: ◯: dissolution; Δ: partial dissolution; X: no dissolution
Conditions: for Dissolved state, Nsc, column B / Dissolved state, Nsc, column A / Dissolved state, Nsc, column D / Dissolved state, Nsc, column C: Nsc-amino acid; for Dissolved state, Nsc, column B / Dissolved state, Nsc, column A / Dissolved state, Fmoc, column B / Dissolved state, Fmoc, column A: 100 mg in 1 ml dichloromethane; for Dissolved state, Nsc, column B / Dissolved state, Nsc, column D / Dissolved state, Fmoc, column B / Dissolved state, Fmoc, column D: heated at 40° C. for 5 minutes, then room temperature 5 minutes; for Dissolved state, Nsc, column A / Dissolved state, Nsc, column C / Dissolved state, Fmoc, column A / Dissolved state, Fmoc, column C: stirring 5 minutes; for Dissolved state, Nsc, column D / Dissolved state, Nsc, column C / Dissolved state, Fmoc, column D / Dissolved state, Fmoc, column C: 15% DMF/DCM; for Dissolved state, Fmoc, column B / Dissolved state, Fmoc, column A / Dissolved state, Fmoc, column D / Dissolved state, Fmoc, column C: Fmoc-amino acid
Experimental: Since only amino acids fully dissolved in a solvent can be used in acylation reactions, the following tests were performed to find solvent conditions in which amino acids can be completely dissolved.
100 mg of each of Nα-Nsc-amino acids and Nα-Fmoc-amino acids shown in Table 1, below, were precisely weighed and added to two containers added with 1 ml of dichloromethane (hereinafter, referred to as “DCM”), followed by stirring for 5 minutes. The dissolved states of amino acids were observed and are expressed in column A of the following Table 1.
Other amino acids, exclusive of totally dissolved amino acids, were heated in an oven at 40° C. for 5 minutes, and allowed to stand at room temperature for 5 minutes. Their dissolved states are shown in column B.
As such, the undissolved amino acids were dissolved in 15% dimethylformamide (hereinafter, referred to as “DMF”)/DCM in the same manner as in the case of the above column A, and their dissolved states are presented in column C.
Still undissolved amino acids were heated in an oven at 40° C. for 5 minutes, and allowed to stand at room temperature for 5 minutes. Their dissolved states were observed and are shown in column D.

Dissolved state, Nsc, column B	Dissolved state, Nsc, column A	Dissolved state, Nsc, column D	Dissolved state, Nsc, column C	Dissolved state, Fmoc, column B	Dissolved state, Fmoc, column A	Dissolved state, Fmoc, column D	Dissolved state, Fmoc, column C	SMILES
X	X	◯	Δ	–	–	–	–	O=C(N[C@@H](Cc1c[nH]c2ccccc12)C(=O)O)OCCS(=O)(=O)c1ccc([N+](=O)[O-])cc1 [Nsc-Trp]
–	–	–	–	X	X	◯	Δ	CC(=O)NCSCC(NC(=O)OCC1c2ccccc2-c2ccccc21)C(=O)O (stereo not drawn) [Fmoc-Cys, reference compound]
X	X	◯	Δ	–	–	–	–	CC(C)CC(NC(=O)OCCS(=O)(=O)c1ccc([N+](=O)[O-])cc1)C(=O)O (stereo not drawn) [Nsc-Leu]
◯	◯	◯	◯	–	–	–	–	CC(OC(C)(C)C)C(NC(=O)OCCS(=O)(=O)c1ccc([N+](=O)[O-])cc1)C(=O)O (stereo not drawn) [Nsc-Thr]
◯	◯	◯	◯	–	–	–	–	Cc1c(C)c(S(=O)(=O)N=C(N)NCCCC(NC(=O)OCCS(=O)(=O)c2ccc([N+](=O)[O-])cc2)C(=O)O)c(C)c2c1OC(C)(C)C2 (stereo not drawn) [Nsc-Arg]
–	–	–	–	◯	X	◯	◯	CSCC[C@H](NC(=O)OCC1c2ccccc2-c2ccccc21)C(=O)O [Fmoc-Met, reference compound]
X	X	◯	◯	–	–	–	–	O=C(CC(NC(=O)OCCS(=O)(=O)c1ccc([N+](=O)[O-])cc1)C(=O)O)NC(c1ccccc1)(c1ccccc1)c1ccccc1 (stereo not drawn) [Nsc-Asn]
◯	◯	◯	◯	–	–	–	–	CC(C)(C)OCC(NC(=O)OCCS(=O)(=O)c1ccc([N+](=O)[O-])cc1)C(=O)O (stereo not drawn) [Nsc-Ser]
–	–	–	–	X	X	◯	Δ	C[C@H](NC(=O)OCC1c2ccccc2-c2ccccc21)C(=O)O [Fmoc-Ala, reference compound]
–	–	–	–	X	X	◯	◯	CC(C)[C@H](NC(=O)OCC1c2ccccc2-c2ccccc21)C(=O)O [Fmoc-Val, reference compound]
◯	Δ	◯	◯	–	–	–	–	CC[C@H](C)[C@H](NC(=O)OCCS(=O)(=O)c1ccc([N+](=O)[O-])cc1)C(=O)O [Nsc-Iie]
–	–	–	–	◯	◯	◯	◯	NC(=O)CC[C@H](NC(=O)OCC1c2ccccc2-c2ccccc21)C(=O)O [Fmoc-Gln, reference compound]
–	–	–	–	◯	Δ	◯	◯	CC(C)C[C@@H](NC(=O)OCC1c2ccccc2-c2ccccc21)C(=O)O [Fmoc-Leu, reference compound]
–	–	–	–	◯	◯	◯	◯	O=C(O)[C@@H]1CCCN1C(=O)OCC1c2ccccc2-c2ccccc21 [Fmoc-Pro, reference compound]
◯	◯	◯	◯	–	–	–	–	O=C(O)[C@@H]1CCCN1C(=O)OCCS(=O)(=O)c1ccc([N+](=O)[O-])cc1 [Nsc-Pro]
–	–	–	–	◯	Δ	◯	◯	CC(C)(C)Oc1ccc(CC(NC(=O)OCC2c3ccccc3-c3ccccc32)C(=O)O)cc1 (stereo not drawn) [Fmoc-Tyr, reference compound]
X	X	◯	◯	–	–	–	–	O=C(N[C@@H](Cc1ccccc1)C(=O)O)OCCS(=O)(=O)c1ccc([N+](=O)[O-])cc1 [Nsc-Phe]

Dissolved state, Nsc, column B	Dissolved state, Nsc, column A	Dissolved state, Nsc, column D	Dissolved state, Nsc, column C	Dissolved state, Fmoc, column B	Dissolved state, Fmoc, column A	Dissolved state, Fmoc, column D	Dissolved state, Fmoc, column C	SMILES
◯	◯	◯	◯	–	–	–	–	CC(C)(C)OC(=O)CCC(NC(=O)OCCS(=O)(=O)c1ccc([N+](=O)[O-])cc1)C(=O)O (stereo not drawn) [Nsc-Glu]
–	–	–	–	X	X	◯	Δ	O=C(O)CNC(=O)OCC1c2ccccc2-c2ccccc21 [Fmoc-Gly, reference compound]
◯	Δ	◯	◯	–	–	–	–	CSCC[C@H](NC(=O)OCCS(=O)(=O)c1ccc([N+](=O)[O-])cc1)C(=O)O [Nsc-Met]
◯	◯	◯	◯	–	–	–	–	CC(C)(C)OC(=O)NCCCCC(NC(=O)OCCS(=O)(=O)c1ccc([N+](=O)[O-])cc1)C(=O)O (stereo not drawn) [Nsc-Lys]
–	–	–	–	◯	◯	◯	◯	O=C(NC(Cc1cn(C(c2ccccc2)(c2ccccc2)c2ccccc2)cn1)C(=O)O)OCC1c2ccccc2-c2ccccc21 (stereo not drawn) [Fmoc-His, reference compound]
X	X	◯	Δ	–	–	–	–	O=C(O)CNC(=O)OCCS(=O)(=O)c1ccc([N+](=O)[O-])cc1 [Nsc-Gly]
–	–	–	–	◯	◯	◯	◯	CC(C)(C)OCC(NC(=O)OCC1c2ccccc2-c2ccccc21)C(=O)O (stereo not drawn) [Fmoc-Ser, reference compound]
◯	◯	◯	◯	–	–	–	–	CC(C)C(NC(=O)OCCS(=O)(=O)c1ccc([N+](=O)[O-])cc1)C(=O)O (stereo not drawn) [Nsc-Val]
–	–	–	–	X	X	◯	Δ	O=C(N[C@@H](Cc1ccccc1)C(=O)O)OCC1c2ccccc2-c2ccccc21 [Fmoc-Phe, reference compound]
–	–	–	–	◯	◯	◯	◯	CC(OC(C)(C)C)C(NC(=O)OCC1c2ccccc2-c2ccccc21)C(=O)O (stereo not drawn) [Fmoc-Thr, reference compound]
–	–	–	–	X	X	◯	◯	O=C(NC(Cc1c[nH]c2ccccc12)C(=O)O)OCC1c2ccccc2-c2ccccc21 (stereo not drawn) [Fmoc-Trp, reference compound]
–	–	–	–	◯	◯	◯	◯	CC(C)(C)OC(=O)NCCCCC(NC(=O)OCC1c2ccccc2-c2ccccc21)C(=O)O (stereo not drawn) [Fmoc-Lys, reference compound]
X	X	◯	◯	–	–	–	–	C[C@H](NC(=O)OCCS(=O)(=O)c1ccc([N+](=O)[O-])cc1)C(=O)O [Nsc-Ala]
–	–	–	–	Δ	Δ	◯	◯	CC[C@H](C)[C@H](NC(=O)OCC1c2ccccc2-c2ccccc21)C(=O)O [Fmoc-Iie, reference compound]
◯	Δ	◯	◯	–	–	–	–	O=C(NC(Cc1cn(C(c2ccccc2)(c2ccccc2)c2ccccc2)cn1)C(=O)O)OCCS(=O)(=O)c1ccc([N+](=O)[O-])cc1 (stereo not drawn) [Nsc-His]
◯	◯	◯	◯	–	–	–	–	CC(C)(C)Oc1ccc(CC(NC(=O)OCCS(=O)(=O)c2ccc([N+](=O)[O-])cc2)C(=O)O)cc1 (stereo not drawn) [Nsc-Tyr]
